Measurements reported in ChEMBL document CHEMBL1201862, “PubChem BioAssay data set” (2004).
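48-hour exposure; five concentrations; linearly interpolated endpoints. At the GI50, growth is halved.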 Calls of active or inactive are those of the source. Rule as the data show it: active = GI50 up to about 1.1 µM and inactive = higher.

Assays:
Experiment in all cases: NCI-60 cell line screen, 48 h
MDA-N = system: MDA-N
SNB-19 = system: SNB-19
HCT-15 = system: HCT-15
SR = system: SR
OVCAR-8 = system: OVCAR-8
LOX IMVI = system: LOX IMVI
MOLT-4 = system: MOLT-4
SF-295 = system: SF-295
Malme-3M = system: Malme-3M
SN12C = system: SN12C
IGROV-1 = system: IGROV-1
KM12 = system: KM12
UACC-257 = system: UACC-257
NCI-H460 = system: NCI-H460
DU-145 = system: DU-145
UO-31 = system: UO-31
SF-539 = system: SF-539
NCI/ADR-RES = system: NCI/ADR-RES
EKVX = system: EKVX

C1CCNCC1.Oc1ncnc2[nH]cc(CN3CCCCC3)c12
GI50 (MDA-N): 30.4 µM (inactive) | GI50 (SNB-19): > 100 µM (inactive) | GI50 (HCT-15): > 100 µM | GI50 (SR): 37.7 µM (inactive) | GI50 (OVCAR-8): > 100 µM (inactive) | GI50 (LOX IMVI): > 100 µM (inactive) | GI50 (MOLT-4): 15.2 µM (inactive) | GI50 (SF-295): > 100 µM (inactive) | GI50 (Malme-3M): 64.9 µM (inactive) | GI50 (SN12C): 48.8 µM (inactive) | GI50 (IGROV-1): > 100 µM (inactive) | GI50 (KM12): > 100 µM (inactive) | GI50 (UACC-257): 21.5 µM (inactive) | GI50 (NCI-H460): 16 µM (inactive) | GI50 (DU-145): 32.5 µM (inactive) | GI50 (UO-31): 85.3 µM (inactive) | GI50 (SF-539): 71.4 µM (inactive) | GI50 (NCI/ADR-RES): > 100 µM (inactive) | GI50 (EKVX): > 100 µM (inactive)

CCN1CCC(O)(/C=C/c2ccc(C(C)C)cc2)C(C(=O)/C=C/c2ccc(C(C)C)cc2)C1 (stereo not given)
GI50 (MDA-N): 2.37 µM (inactive) | GI50 (SNB-19): 3.8 µM (inactive) | GI50 (HCT-15): 2 µM | GI50 (SR): 1.38 µM (inactive) | GI50 (OVCAR-8): 1.96 µM (inactive) | GI50 (LOX IMVI): 0.895 µM (active) | GI50 (MOLT-4): 1.59 µM (inactive) | GI50 (SF-295): 2.9 µM (inactive) | GI50 (Malme-3M): 5.02 µM (inactive) | GI50 (SN12C): 2.47 µM (inactive) | GI50 (IGROV-1): 2.05 µM (inactive) | GI50 (KM12): 1.85 µM (inactive) | GI50 (UACC-257): 6.67 µM (inactive) | GI50 (NCI-H460): 1.53 µM (inactive) | GI50 (DU-145): 3.34 µM (inactive) | GI50 (UO-31): 2.96 µM (inactive) | GI50 (SF-539): 2.29 µM (inactive) | GI50 (NCI/ADR-RES): 3.08 µM (inactive) | GI50 (EKVX): 2.22 µM (inactive)

O=C1C2CCN(CC2)C1(CO)CO
GI50 (MDA-N): 39.1 µM (inactive) | GI50 (SNB-19): > 100 µM (inactive) | GI50 (HCT-15): 16.1 µM | GI50 (SR): 20 µM (inactive) | GI50 (OVCAR-8): 28.1 µM (inactive) | GI50 (LOX IMVI): 16 µM (inactive) | GI50 (MOLT-4): 7.01 µM (inactive) | GI50 (SF-295): > 100 µM (inactive) | GI50 (Malme-3M): 18.2 µM (inactive) | GI50 (SN12C): 17.6 µM (inactive) | GI50 (IGROV-1): > 89.5 µM (inactive) | GI50 (KM12): 64.7 µM (inactive) | GI50 (UACC-257): 18.6 µM (inactive) | GI50 (NCI-H460): 66.7 µM (inactive) | GI50 (DU-145): 17.3 µM (inactive) | GI50 (UO-31): 16.1 µM (inactive) | GI50 (SF-539): 40.9 µM (inactive) | GI50 (NCI/ADR-RES): 24.5 µM (inactive) | GI50 (EKVX): 49.7 µM (inactive)

COc1cc(C2c3cc4c(cc3OC(Nc3ccccc3)C2C)OCO4)cc(OC)c1OC (stereo not given)
GI50 (MDA-N): 0.161 µM (active) | GI50 (SNB-19): 1.19 µM (inactive) | GI50 (HCT-15): 0.494 µM | GI50 (SR): 0.828 µM (active) | GI50 (OVCAR-8): 1.44 µM (inactive) | GI50 (LOX IMVI): 0.593 µM (active) | GI50 (MOLT-4): 0.416 µM (active) | GI50 (SF-295): 0.333 µM (active) | GI50 (Malme-3M): 0.166 µM (active) | GI50 (SN12C): 0.659 µM (active) | GI50 (IGROV-1): 1.41 µM (inactive) | GI50 (KM12): 0.48 µM (active) | GI50 (UACC-257): 2.82 µM (inactive) | GI50 (NCI-H460): 0.524 µM (active) | GI50 (DU-145): 0.923 µM (active) | GI50 (UO-31): 2.09 µM (inactive) | GI50 (SF-539): 0.262 µM (active) | GI50 (NCI/ADR-RES): 0.564 µM (active) | GI50 (EKVX): 1.31 µM (inactive)

CC(NC1=NCCO1)c1ccco1 (stereo not given)
GI50 (MDA-N): 95.9 µM (inactive) | GI50 (SNB-19): > 100 µM (inactive) | GI50 (HCT-15): > 100 µM | GI50 (SR): 75.9 µM (inactive) | GI50 (OVCAR-8): > 100 µM (inactive) | GI50 (LOX IMVI): > 100 µM (inactive) | GI50 (MOLT-4): > 100 µM (inactive) | GI50 (SF-295): > 100 µM (inactive) | GI50 (Malme-3M): > 100 µM (inactive) | GI50 (SN12C): > 100 µM (inactive) | GI50 (IGROV-1): > 100 µM (inactive) | GI50 (KM12): 20.3 µM (inactive) | GI50 (UACC-257): > 100 µM (inactive) | GI50 (NCI-H460): > 100 µM (inactive) | GI50 (DU-145): > 100 µM (inactive) | GI50 (UO-31): > 100 µM (inactive) | GI50 (SF-539): > 100 µM (inactive) | GI50 (NCI/ADR-RES): > 100 µM (inactive) | GI50 (EKVX): > 100 µM (inactive)
